We go through 11 compounds from ChEMBL document CHEMBL3593161, “Discovery of potent and selective nonplanar tankyrase inhibiting nicotinamide mimics” (Bioorg Med Chem, 2015).

The target of data set [1] is T1, Poly [ADP-ribose] polymerase tankyrase-2 (Homo sapiens, UniProt Q9H2K2).
T1 sequence (Q9H2K2 whole entry): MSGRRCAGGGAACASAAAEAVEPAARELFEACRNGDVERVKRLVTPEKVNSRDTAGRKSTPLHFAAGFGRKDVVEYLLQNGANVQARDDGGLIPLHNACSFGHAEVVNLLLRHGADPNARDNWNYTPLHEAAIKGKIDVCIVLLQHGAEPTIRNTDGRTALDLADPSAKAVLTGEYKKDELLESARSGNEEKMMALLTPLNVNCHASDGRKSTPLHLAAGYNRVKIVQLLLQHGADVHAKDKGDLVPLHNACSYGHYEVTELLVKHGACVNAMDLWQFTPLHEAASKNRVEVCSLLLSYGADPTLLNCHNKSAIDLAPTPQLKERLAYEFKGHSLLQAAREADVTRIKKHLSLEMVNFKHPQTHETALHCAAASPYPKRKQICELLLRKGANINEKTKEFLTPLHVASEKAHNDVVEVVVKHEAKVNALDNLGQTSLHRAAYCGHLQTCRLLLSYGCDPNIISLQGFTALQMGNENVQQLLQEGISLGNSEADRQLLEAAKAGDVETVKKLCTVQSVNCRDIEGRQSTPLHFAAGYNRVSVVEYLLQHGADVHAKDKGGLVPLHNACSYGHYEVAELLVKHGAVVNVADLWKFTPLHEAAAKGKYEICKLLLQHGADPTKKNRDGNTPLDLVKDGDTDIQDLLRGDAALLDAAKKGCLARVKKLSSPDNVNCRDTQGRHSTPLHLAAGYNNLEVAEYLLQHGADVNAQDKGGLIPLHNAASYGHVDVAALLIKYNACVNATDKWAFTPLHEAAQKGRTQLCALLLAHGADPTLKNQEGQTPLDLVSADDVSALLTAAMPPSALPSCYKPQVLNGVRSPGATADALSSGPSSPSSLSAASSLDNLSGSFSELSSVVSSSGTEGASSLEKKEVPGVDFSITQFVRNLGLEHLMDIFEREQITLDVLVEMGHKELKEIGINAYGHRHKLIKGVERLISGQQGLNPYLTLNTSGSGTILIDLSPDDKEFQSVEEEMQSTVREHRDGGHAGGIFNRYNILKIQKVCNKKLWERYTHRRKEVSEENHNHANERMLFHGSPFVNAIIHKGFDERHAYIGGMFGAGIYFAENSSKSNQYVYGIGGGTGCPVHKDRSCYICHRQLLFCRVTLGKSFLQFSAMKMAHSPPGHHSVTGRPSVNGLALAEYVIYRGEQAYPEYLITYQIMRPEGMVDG
Description: Inhibition of human TNKS2 (956 to 1161 and 873 to 1161) using 500 nM NAD substrate after 20 mins incubation by fluorescence assay

The test system of the next data set is HEK293. The experiment in a line: Cytotoxicity against HEK293 cells assessed as cell viability at 2.5 to 10 uM. The data set is classed as cell-based. The settings on record: human, hek293, 10 µM.
Data set [2] addresses T2, Poly [ADP-ribose] polymerase tankyrase-1 (Homo sapiens, UniProt O95271).
T2 sequence (O95271 whole entry): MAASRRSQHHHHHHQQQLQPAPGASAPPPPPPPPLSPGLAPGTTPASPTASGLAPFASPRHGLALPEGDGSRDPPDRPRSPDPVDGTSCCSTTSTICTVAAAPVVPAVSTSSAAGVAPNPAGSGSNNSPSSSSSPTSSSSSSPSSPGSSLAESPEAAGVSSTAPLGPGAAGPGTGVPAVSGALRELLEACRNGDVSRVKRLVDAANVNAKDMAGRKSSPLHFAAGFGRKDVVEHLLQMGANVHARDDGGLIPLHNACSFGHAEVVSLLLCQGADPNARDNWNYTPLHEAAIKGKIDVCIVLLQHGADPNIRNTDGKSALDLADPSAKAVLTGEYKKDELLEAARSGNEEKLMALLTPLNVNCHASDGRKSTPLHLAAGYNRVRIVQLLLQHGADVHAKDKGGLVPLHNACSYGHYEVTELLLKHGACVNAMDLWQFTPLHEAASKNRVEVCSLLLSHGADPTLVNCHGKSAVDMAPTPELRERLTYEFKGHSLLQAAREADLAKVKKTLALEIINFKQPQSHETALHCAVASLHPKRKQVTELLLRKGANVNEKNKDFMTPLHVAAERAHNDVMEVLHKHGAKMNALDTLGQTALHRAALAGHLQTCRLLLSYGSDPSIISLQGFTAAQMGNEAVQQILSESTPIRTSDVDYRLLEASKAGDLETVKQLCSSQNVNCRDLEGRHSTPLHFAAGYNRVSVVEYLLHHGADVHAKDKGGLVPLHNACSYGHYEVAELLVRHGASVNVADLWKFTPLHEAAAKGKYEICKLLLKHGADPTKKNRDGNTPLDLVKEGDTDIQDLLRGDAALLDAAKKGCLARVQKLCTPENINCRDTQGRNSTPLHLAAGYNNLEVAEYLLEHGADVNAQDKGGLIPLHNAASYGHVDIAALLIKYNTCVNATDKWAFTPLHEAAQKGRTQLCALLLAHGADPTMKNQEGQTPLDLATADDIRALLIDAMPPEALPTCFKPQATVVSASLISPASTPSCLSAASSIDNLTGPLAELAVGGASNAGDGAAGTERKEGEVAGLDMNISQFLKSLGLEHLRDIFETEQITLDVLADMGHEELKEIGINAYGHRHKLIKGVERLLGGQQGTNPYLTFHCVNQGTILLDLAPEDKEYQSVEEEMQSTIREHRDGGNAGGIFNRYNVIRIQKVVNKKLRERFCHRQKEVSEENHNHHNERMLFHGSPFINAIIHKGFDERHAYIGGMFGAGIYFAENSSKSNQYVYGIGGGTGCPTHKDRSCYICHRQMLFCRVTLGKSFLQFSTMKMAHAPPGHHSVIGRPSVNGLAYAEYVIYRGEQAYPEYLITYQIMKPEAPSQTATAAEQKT
As to the kind of experiment: Inhibition of human TNKS1 (1030 to 1317) using NAD substrate after 20 mins incubation by fluorescence assay.

The target in data set [3] is Poly [ADP-ribose] polymerase 2 (Homo sapiens, UniProt Q9UGN5). As to the kind of experiment: Inhibition of full-length human ARTD2 using 500 nM NAD substrate after 3 hrs incubation.
Data set [4] addresses Protein mono-ADP-ribosyltransferase PARP4 (Homo sapiens, UniProt Q9UKK3). As to the kind of experiment: Inhibition of human ARTD4 (250 to 565) using 500 nM NAD substrate after 2.5 hrs incubation.
Data set [5] has as its target T3, Protein mono-ADP-ribosyltransferase PARP15 (Homo sapiens, UniProt Q460N3).
T3 sequence (Q460N3 whole entry): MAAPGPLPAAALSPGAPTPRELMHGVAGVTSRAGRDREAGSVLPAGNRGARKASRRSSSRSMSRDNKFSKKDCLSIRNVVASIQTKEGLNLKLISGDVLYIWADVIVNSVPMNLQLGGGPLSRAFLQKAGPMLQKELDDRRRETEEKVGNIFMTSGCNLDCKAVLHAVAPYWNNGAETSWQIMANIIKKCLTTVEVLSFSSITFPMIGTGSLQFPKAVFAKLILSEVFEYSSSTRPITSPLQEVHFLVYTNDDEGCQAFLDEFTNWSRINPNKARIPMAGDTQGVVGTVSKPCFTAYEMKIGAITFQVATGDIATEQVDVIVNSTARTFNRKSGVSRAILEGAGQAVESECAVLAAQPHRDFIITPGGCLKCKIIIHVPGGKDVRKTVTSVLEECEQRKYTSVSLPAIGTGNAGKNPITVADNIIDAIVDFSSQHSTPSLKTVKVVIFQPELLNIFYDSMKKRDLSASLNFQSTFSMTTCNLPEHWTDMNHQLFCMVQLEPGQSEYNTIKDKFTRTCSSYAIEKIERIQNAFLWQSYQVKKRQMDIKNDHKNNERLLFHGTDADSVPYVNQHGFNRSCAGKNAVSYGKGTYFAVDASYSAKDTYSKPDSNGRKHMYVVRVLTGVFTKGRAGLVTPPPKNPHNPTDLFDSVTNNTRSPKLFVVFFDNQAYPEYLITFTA
As to the kind of experiment: Inhibition of human ARTD7 (460 to 656) using 250 nM NAD substrate after 2 hrs incubation.

The target in data set [6] is T4, Protein mono-ADP-ribosyltransferase PARP10 (Homo sapiens, UniProt Q53GL7).
T4 sequence (Q53GL7 whole entry): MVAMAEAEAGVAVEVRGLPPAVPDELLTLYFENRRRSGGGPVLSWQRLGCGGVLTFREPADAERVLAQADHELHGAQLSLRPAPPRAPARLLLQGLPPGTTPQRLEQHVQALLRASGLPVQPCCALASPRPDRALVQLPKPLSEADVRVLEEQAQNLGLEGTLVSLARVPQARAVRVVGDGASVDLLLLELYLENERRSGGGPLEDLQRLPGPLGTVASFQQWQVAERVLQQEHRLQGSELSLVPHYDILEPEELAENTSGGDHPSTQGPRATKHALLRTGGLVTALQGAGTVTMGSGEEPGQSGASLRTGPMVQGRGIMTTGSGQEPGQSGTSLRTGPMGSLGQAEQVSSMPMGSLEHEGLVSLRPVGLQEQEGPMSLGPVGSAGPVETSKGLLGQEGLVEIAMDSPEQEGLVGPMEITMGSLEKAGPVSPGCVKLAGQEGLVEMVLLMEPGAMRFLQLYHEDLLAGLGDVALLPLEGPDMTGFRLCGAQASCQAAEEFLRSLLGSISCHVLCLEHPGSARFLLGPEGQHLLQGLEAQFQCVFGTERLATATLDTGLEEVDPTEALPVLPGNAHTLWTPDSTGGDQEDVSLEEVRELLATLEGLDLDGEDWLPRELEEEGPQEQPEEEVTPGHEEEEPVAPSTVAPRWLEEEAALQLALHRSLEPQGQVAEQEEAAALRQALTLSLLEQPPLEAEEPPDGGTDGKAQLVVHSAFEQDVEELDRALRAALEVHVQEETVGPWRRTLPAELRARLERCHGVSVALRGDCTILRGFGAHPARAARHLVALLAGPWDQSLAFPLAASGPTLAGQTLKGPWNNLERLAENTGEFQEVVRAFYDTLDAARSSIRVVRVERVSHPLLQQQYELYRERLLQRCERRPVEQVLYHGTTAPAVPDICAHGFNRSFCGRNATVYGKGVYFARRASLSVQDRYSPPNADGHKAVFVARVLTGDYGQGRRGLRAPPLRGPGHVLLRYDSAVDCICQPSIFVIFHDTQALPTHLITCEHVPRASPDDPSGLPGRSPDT
The experiment in a line: Inhibition of human ARTD10 (809 to 1017) using 500 nM NAD substrate after 2.5 hrs incubation.

pIC50: −log10 of the molar value. Where “and” joins values, the source holds several entries; their conditions need not be identical. Equal entries are not always repeated. Where only a bound is given, the exact number is not on record here.

Sequence of Protein mono-ADP-ribosyltransferase PARP4 (Q9UKK3 whole entry): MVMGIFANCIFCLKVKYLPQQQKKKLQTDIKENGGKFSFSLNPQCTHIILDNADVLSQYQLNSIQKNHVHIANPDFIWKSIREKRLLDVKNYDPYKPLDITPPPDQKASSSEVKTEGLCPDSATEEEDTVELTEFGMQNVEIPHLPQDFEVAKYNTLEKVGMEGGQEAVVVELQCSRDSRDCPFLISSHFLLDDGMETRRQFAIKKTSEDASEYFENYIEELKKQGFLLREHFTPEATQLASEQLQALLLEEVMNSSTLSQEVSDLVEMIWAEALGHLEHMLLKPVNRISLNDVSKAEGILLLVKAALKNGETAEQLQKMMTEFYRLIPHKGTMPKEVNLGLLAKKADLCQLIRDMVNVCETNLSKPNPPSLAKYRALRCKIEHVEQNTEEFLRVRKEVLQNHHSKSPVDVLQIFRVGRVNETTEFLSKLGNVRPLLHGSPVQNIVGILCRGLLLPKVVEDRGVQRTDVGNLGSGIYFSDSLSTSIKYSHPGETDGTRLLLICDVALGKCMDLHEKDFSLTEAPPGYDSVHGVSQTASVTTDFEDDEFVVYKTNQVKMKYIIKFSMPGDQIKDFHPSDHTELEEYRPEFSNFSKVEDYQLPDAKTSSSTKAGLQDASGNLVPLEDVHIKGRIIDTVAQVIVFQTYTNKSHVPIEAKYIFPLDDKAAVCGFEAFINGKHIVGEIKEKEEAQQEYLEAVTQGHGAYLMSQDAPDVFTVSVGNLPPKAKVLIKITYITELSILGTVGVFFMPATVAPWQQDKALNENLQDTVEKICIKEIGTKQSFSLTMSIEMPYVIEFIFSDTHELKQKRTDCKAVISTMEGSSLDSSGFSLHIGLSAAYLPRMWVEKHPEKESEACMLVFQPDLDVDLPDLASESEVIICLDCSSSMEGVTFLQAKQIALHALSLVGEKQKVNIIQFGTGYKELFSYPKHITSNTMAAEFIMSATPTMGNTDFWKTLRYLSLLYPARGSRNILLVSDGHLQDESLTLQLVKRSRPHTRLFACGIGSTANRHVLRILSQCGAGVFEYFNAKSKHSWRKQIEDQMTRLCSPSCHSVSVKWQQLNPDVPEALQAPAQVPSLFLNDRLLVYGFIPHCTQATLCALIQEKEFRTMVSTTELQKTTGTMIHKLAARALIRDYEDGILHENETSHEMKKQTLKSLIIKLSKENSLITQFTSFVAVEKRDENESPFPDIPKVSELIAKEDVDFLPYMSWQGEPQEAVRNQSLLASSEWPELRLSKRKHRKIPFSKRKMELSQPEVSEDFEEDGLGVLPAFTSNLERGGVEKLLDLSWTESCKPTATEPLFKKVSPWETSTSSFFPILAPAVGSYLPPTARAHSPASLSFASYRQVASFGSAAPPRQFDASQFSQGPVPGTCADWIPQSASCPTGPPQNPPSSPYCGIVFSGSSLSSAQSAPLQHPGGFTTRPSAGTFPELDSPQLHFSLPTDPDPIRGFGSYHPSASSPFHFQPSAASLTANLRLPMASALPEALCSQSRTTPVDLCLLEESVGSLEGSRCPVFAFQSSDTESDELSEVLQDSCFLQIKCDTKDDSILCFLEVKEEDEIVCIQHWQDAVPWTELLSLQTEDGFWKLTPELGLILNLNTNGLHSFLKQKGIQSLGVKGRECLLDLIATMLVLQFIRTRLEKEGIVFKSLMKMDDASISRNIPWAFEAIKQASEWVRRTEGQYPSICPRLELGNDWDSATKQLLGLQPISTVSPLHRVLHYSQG
Sequence of Poly [ADP-ribose] polymerase 2 (Q9UGN5 whole entry): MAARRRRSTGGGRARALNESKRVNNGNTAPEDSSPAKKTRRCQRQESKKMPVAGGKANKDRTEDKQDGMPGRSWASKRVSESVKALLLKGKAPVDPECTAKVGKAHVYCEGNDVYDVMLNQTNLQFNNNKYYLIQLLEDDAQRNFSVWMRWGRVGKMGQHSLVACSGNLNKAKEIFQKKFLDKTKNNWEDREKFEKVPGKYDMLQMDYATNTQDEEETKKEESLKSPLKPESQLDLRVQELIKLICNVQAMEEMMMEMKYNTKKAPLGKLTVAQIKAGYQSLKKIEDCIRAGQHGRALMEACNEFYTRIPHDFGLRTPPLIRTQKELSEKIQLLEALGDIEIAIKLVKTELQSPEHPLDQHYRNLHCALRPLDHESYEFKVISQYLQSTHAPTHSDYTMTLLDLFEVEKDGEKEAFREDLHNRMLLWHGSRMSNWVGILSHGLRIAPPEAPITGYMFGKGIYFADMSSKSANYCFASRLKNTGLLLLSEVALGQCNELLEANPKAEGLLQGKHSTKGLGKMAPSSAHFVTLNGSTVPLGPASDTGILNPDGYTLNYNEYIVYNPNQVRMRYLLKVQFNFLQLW

The pIC50 is the IC50 on a negative log10 scale, so that one unit is a factor of ten. A lower pIC50 goes with a large IC50. `COc1ccc(C2NC(=O)c3ccccc3N2)cc1` (stereo unspecified) had a negative logarithm of the IC50 (pIC50) in data set [1] of 6.00. The same measure, in the same setting: the result for `O=C1NC(c2ccc(Cl)cc2)Nc2ccccc21` (stereo unspecified) reads 6.39 and 6.38. In data set [1], `O=C1NC(c2ccccc2Cl)Nc2ccccc21` (stereo unspecified) had a pIC50 of 4.51. The same measure, in the same setting: the result for `O=C1NC(c2cccc(OCc3ccccc3)c2)Nc2ccccc21` (stereo unspecified) reads 5.14. The same measure, in the same setting: the result for `CCc1c(C)nc(N2CCN(c3ccccc3F)CC2)nc1O` reads 6.14. In the case of `O=c1[nH]c(N2CCN(Cc3ccncc3)CC2)nc2c1CCCC2`, the Activity entry in the data set with HEK293 is reported as “Non-toxic”. For the same compound, the pIC50 in data set [2] is 6.43; in data set [3] it was 5.38; in data set [4], 4.48; in data set [5], < 5.00; in data set [6], 5.27.

`CN1CCN(c2nc3c(c(=O)[nH]2)CCCC3)CC1`: in the data set with HEK293, the Activity entry was “Non-toxic”. Also, the negative logarithm of the IC50 (pIC50) in data set [2] is 5.20; in data set [3], 5.44; in data set [4], 4.77; in data set [5], < 5.00; in data set [6], < 5.00. `CN1c2ncccc2C(=O)NC1c1ccc(NC(=O)C2CCOCC2)cc1` (stereo unspecified) showed a pIC50 in data set [1] of 5.18. On the same count and under the same terms, the result for `O=c1[nH]c(N2CCNCC2)nc2c1CCO2` reads < 4.00; that for `O=C1NC(c2ccccc2Cl)Nc2ncccc21` (stereo unspecified), 3.85; that for `O=C1NC(c2cccc(OCc3ccccc3)c2)Nc2ncccc21` (stereo unspecified), 3.64.
